Data taken from patent US12384751B2, “Allosteric activators of the ALPHA1A-adrenergic receptor” (The Cleveland Clinic Foundation, priority 2019, dated 2025).
Entries after “also recorded” stand apart in the source; their conditions may differ.

Assays:
[1] = target: T1, α1A-AR (Homo sapiens, UniProt P35348); test: cAMP assay at α1A-AR; type: cell-based; parameters: expressed in transfected cells; host or cells: Rat-1 fibroblast cells
T1 sequence (P35348 1-466): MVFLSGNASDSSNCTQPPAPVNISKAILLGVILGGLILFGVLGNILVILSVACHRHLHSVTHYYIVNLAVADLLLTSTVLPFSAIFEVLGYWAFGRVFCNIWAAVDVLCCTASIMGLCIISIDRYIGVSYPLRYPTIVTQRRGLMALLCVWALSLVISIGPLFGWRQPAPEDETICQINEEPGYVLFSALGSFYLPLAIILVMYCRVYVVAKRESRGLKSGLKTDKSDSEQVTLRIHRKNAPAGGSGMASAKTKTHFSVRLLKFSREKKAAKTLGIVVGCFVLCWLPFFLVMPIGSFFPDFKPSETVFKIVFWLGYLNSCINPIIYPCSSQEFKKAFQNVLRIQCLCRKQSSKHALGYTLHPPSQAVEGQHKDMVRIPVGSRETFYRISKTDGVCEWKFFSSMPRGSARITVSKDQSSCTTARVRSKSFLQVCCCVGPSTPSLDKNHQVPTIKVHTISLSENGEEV
Experimental: cAMP assay: Cells expressing a single α1-adrenergic receptor subtype are washed and re-plated into 24-well plates in DMEM media without serum at approximately 2.4×10^4 cells/well. Cells are allowed to rest till the next day in a CO2 incubator at 37° C. The cells are washed twice with DMEM (no serum), then 1 ml of DMEM is added to each well. Cells are pre-incubated for 45 mins-1 hour at 37° C. in a CO2 incubator with 10 uM propranolol, followed by 100 uM IBMX for 30 minutes. Final DMSO concentration is at 0.05%. Norepinephrine or epinephrine is added in a dose response (1 dose per well) in addition to one of the Compounds 1-10 at one concentration (i.e. 10^−5M). Cells are incubated for another 30 mins at 37° C. in a CO2 incubator. The reaction is concluded by aspirating the media and adding 0.1M HCL. The mixture is incubated for 20 mins at room temperature. The cells are scraped and suspended until homogenous. The mixture is centrifuged at 1000 g for 10 mins and the supernatant assayed the same day according to a manufacturer's cAMP kit (Cayman Select Cyclic AMP EIA kit #501040).

[2] = target: T2, α1B-AR (Homo sapiens, UniProt P35368); test: Effect of compound on binding affinity of norepinephrine at α1B-AR; conditions: 10^−5M
T2 construct: expressed in transfected cells; host or cells: Rat-1 fibroblast cells
T2 sequence (P35368 1-520): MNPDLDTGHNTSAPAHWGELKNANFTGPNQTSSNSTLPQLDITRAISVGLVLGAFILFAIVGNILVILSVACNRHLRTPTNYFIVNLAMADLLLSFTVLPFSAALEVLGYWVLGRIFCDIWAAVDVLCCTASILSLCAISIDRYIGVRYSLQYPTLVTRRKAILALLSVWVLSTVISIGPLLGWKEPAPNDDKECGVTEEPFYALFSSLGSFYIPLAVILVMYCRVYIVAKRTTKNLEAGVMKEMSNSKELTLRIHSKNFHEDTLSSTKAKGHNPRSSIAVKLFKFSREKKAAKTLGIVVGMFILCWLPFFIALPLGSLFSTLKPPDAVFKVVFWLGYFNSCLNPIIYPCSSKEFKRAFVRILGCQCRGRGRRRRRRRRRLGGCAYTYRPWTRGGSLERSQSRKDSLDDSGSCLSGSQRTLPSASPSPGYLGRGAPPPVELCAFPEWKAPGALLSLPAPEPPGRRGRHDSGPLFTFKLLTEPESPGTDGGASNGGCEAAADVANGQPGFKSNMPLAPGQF
Experimental: Competition binding assays: These compounds were characterized for their ligand binding properties at the α1-AR subtypes. The binding affinities of Compounds 1-10 were determined in a series of competition-binding experiments with the α1-AR-selective antagonist [^125I]HEAT as the radioligand. Assays were performed in duplicate in HEM buffer, in a total assay volume of 1000 μl. Radioligand binding assays are composed of 5 ug of membranes, harvested from Rat-1 fibroblast cells expressing only one of the alpha1-AR subtypes, HEM buffer containing GTP (composed of 20 mM HEPES, pH 7.4, 1.4 mM EGTA, 12.5 mM MgCl2, pH to 7.4), 0.5 mM GTP, 35-80 pM^125I-HEAT, and various doses of norepinephrine or epinephrine and incubated with shaking at 25° C. for 1-2 hours. The above conditions will convert all the conformations of the receptor into a single low affinity site. To show both high and low affinity sites of the receptor (typically seen with GPCR agonists), the GTP is removed from the binding buffer. Nonspecific binding was determined experimentally in the presence of 10^−4 M phentolamine. Unbound radioactivity was separated from membrane-bound radioactivity by filtration through Whatman GF/C filter paper. […] Bound radioactivity remaining on the filters was counted on an ICN gamma counter operating at 79.8% efficiency. Data are analyzed using Graphpad Prism. […]

[3] = test system: α2-ARs; test: Radioligand binding at α2-ARs
Experimental: Characterization: Binding affinity. Using AR null stably-transfected cell lines that each express only one of the three individual α1-AR subtypes, compounds are characterized for their selectivity for the α1A-AR in radioligand binding studies. To be sure of no cross-reactivity, binding affinity against the α2-ARs and β-ARs are also measured. Details for such procedures are found generally at references 25-26, 94-98, all of which are herein incorporated by reference.

CC(C)Cc1c(OCC2=NCCN2)cccc1N(C)S(C)(=O)=O [Compound 3, N-[3-(4,5-Dihydro-1H-imidazol-2-ylmethoxy)-2-isobutyl-phenyl]-N-methyl-methanesulfonamide]
PAM activity / PAM type [1]: Type I PAM | dose at which potentiation of norepinephrine cAMP response is maximal [1]: 10^−8 M | effect on epinephrine-mediated cAMP response at the α1A-AR ([1]; 10^−5M to 10^−7M of compound): no effect | effect on norepinephrine-mediated cAMP response at the α1A-AR ([1]; 10^−5M to 10^−9M of compound): potentiates | stimulation of cAMP by the compound by itself ([1]; compound alone): cannot stimulate | potentiation of the cAMP response of norepinephrine ([1]; dose-response of compound): 50% | effect on affinity of norepinephrine at the α1B-AR [2]: no effect; also recorded: does not increase the affinity of norepinephrine | interaction with α2-ARs [3]: does not interact with high affinity
